Read-outs that look alike come from different tables or passages of the source.

Experiment [1] concerns HK-2 cells. The experiment can be described thus: CCK-8 cell viability, individual and combined exposure (CI/DRI analysis), HK-2 cells. The experiment is classed as cell-based, human. The following applies: for DRI (dose reduction index): in PAT+OTA+ACM group, from low to high doses; for IC50: Homo sapiens. Here is the method:
(§1) The cytotoxicity of individual contaminations was evaluated using dose–response curves, from which half-maximal inhibitory concentration (IC50) values were calculated. Contaminant concentration and exposure duration were identified as the primary determinants influencing cytotoxic responses. Concentrations employed in the binary and ternary combination assays were selected based on IC50 values obtained from individual treatments in HK-2 and SK-N-SH cell lines.
(§2) Due to the high binding affinity of OTA for serum proteins, all treatments were conducted in medium supplemented with 2% FBS to minimize potential interference with toxicological outcomes. For cytotoxicity evaluation, 100 μL of cell suspension (8 × 10^3 cells/well) was seeded into 96-well plates. Upon reaching approximately 80% confluence, the culture medium was replaced with fresh medium containing varying concentrations of PAT, OTA, ACM, or their combinations. Cells were then incubated for 24 or 48 h, after which cell viability was assessed. Concentrations used for individual mycotoxin exposures are provided in Table S1, while those for binary and ternary mixture exposures are listed in Table S2.
(§3) Cells were diluted to a density of 8 × 10^3 cells/well and seeded in 96-well culture plates. After 24 h incubation, all cells were exposed to various concentrations of individual or combined contaminants and allowed to grow in an incubator for 24 h and 48 h, respectively. The cytotoxicity of the two different cell lines was determined using a CCK-8 kit according to the manufacturer’s instructions. After treatment, 10 μL CCK-8 solution was added to each well (10% culture volume) and incubated for 2 h at 37 °C. Absorbance values (A) were measured at 450 nm using a microplate reader (Thermo Fisher Scientific, Waltham, MA, USA). All treatments were performed in six replicates, and cell activity was calculated as follows: Cell Viability(%)=Aexperiment −A(blank)/Acontrol−A(blank)× 100
(§4) The dose–effect relationship for PAT, OTA, and ACM was calculated using the […] proposed by Chou and Talalay. fa/fu=D/Dm^m
(§5) D was the concentration of the contamination, fa was the cell proliferation inhibition rate, and fu was the unaffected fraction (fu = 1 − fa). Dm was the median effect dose for the 50% inhibition of cell proliferation. m was the coefficient indicating the shape of the dose–effect relationship (m = 1, m > 1, and m < 1 each indicated hyperbolic, sigmoidal, and flat sigmoidal dose–effect curves). The method employed the Dm parameter to measure the cytotoxicity of individual contamination.
(§6) When the composition of contaminations extended to binary or ternary, the interactions of multiple contaminations were assayed by means of combination index model (CI) based on the median effect principle, as the CI values calculated according to a generic formula: nCIx=∑j=1n(D)j/(Dx)j
(§7) ^n(CI)x referred to n kind of contaminant combined cell inhibition rate for x% of composite index, (D)j was referred to the joint action of n type of toxin to a total dose of x% cell inhibition rate, and (Dx)j referred to the combination of each contamination effect itself when dose of x% cell inhibition rate. Overall, the types of combined effects represented by CI = 0.9–1.1, CI < 0.9, and CI > 1.1 were additive, synergistic, and antagonistic, respectively.
(§8) In addition, the impact of contaminants on the combined effects was assessed using the dose reduction index (DRI). DRI indicated a multiplicative reduction in the dose required to produce the same effect when the contaminant was mixed compared to when used alone. […] The DRI was calculated as follows: n(CI)x=∑j=1n(D)j/(Dm)j=∑j=1n1/(DRI)j or (DRI)j=(D)j/(Dm)j
(§9) The IC50 values of the three different contaminations exposed to the two cell lines was calculated by GraphPad Prism 9.4.0 software. […]

In experiment [2] the test system is SK-N-SH cells. The experiment can be described thus: CCK-8 cell viability, individual and combined exposure (CI/DRI analysis), SK-N-SH cells. The experiment is classed as cell-based, human. The settings on record: for IC50: Homo sapiens. Here is the method:
as §1, §2, §3, §4, §5, §6, §7, §8, §9

Experiment [3] concerns SK-N-SH cells. The following applies: 24 h; cited from earlier work.
The subject of experiment [4] is Caco-2 cells. The settings on record: cited from earlier work.
The mark [5] stands for this setting: HK-2 cells, 24 h, CCK-8, mean ± SEM, n = 6, read-out: IC50.
Setting [6] is: HK-2 cells, 48 h, CCK-8, mean ± SEM, n = 6, read-out: IC50.
Setting [7] is: SK-N-SH cells, 24 h, CCK-8, mean ± SEM, n = 6, read-out: IC50.
Setting [8] is: SK-N-SH cells, 48 h, CCK-8, mean ± SEM, n = 6, read-out: IC50.
The mark [9] stands for this setting: SK-N-SH, 24 h, in PAT+OTA group.

On to `C/C(=N\C#N)N(C)Cc1ccc(Cl)nc1` [ACM, acetamiprid], for which the “DRI (dose reduction index)” value in experiment [1] (HK-2, 24 h) is “greater than 1”. The IC50 (as a rule, the concentration needed to halve the response being measured) is 1160 ± 38.7 µg/mL in experiment [1] (setting [5]); 900.2 ± 4.1 µg/mL in experiment [1] (setting [6]); 700 ± 34.4 µg/mL in experiment [2] (setting [7]); 550 ± 31.6 µg/mL in experiment [2] (setting [8]); ~10600 µM in experiment [3].

Turning to `C[C@@H]1Cc2c(Cl)cc(C(=O)N[C@@H](Cc3ccccc3)C(=O)O)c(O)c2C(=O)O1` [OTA, ochratoxin A], the IC50 in experiment [1] (HK-2, 24 h) was 2.5 ± 0.049 µg/mL; in experiment [1] (HK-2, 48 h), 1 ± 0.021 µg/mL; in experiment [4], 145 µM; in experiment [2] (SK-N-SH, 24 h), 7 ± 0.357 µg/mL; in experiment [2] (SK-N-SH, 48 h) it was 4.5 ± 0.415 µg/mL. Also, the “DRI (dose reduction index)” value in experiment [2] (setting [9]) was “greater than 1”; in experiment [2] (SK-N-SH, 48 h, in OTA+ACM group, Fa > 0.5) it was “greater than 1”.

Consider `O=C1C=C2C(=CCOC2O)O1` (centres unmarked) [PAT, Patulin], for which the “DRI (dose reduction index)” value in experiment [1] (HK-2, 24 h) is “greater than 1”; in experiment [2] (setting [9]), “greater than 1”. The half-maximal inhibitory concentration (IC50) in experiment [1] (setting [5]) is 0.5 ± 0.005 µg/mL; in experiment [1] (setting [6]), 0.4 ± 0.006 µg/mL; in experiment [4] it was 16 µM; in experiment [2] (setting [7]), 0.5 ± 0.024 µg/mL; in experiment [2] (setting [8]) it was 0.25 ± 0.001 µg/mL.

Source of the values: paper PMC12656219, “Cytotoxic Effects Induced by Combined Exposure of the Patulin, Ochratoxin A, and Acetamiprid to HK-2 and SK-N-SH Cell Lines” (Toxins, 2025).
